The values that follow come from patent US20240293405A1, “(1H-PYRROLO[2,3-B]PYRIDIN-1-YL)PYRIMIDIN-2-YL-AMINO-PHENYL-ACRYLAMIDE INHIBITORS OF EGFR FOR USE IN THE TREATMENT OF BRAIN TUMORS” (Dana-Farber Cancer Institute, Inc., priority 2021, published 2024).

Series [1] is described as follows: Brain and plasma exposure after 5 hour intravenous infusion. Format: in vivo, Sprague Dawley rats. As to conditions: for concentration at 5 h / Kp at 5 h / concentration at 1 h / concentration at 2 h / concentration at 3 h: male, Sprague Dawley, 3 mg/kg; for concentration at 5 h / concentration at 1 h / concentration at 2 h / concentration at 3 h: intravenous; for Kp at 5 h: iv, read-out: Brain/Plasma (ratios). How it is done:
A single IV infustion for 5 hours was administered to each animal, which were then twice observed clinically (30 minutes to 1 hour post-posing and at the end of the study (TTerminal). Blood samples were collected at 5 time points from each animal over the 5 hour infusion period (5 minutes, 1 hour, 2, hours, 3 hours and TTerminal) and processed to plasma. Brains were collected at Tterminal (blotted, weighed, and snap frozen) and brain exposure was compared. […]

In series [2] the test system is 468 human kinases and disease relevant mutant variants. The experiment in a line: Kinase selectivity binding panel (468 kinases). The following applies: 468 kinase panel, 1 μM free base. How it is done:
(§1) Compound 1 and Compound 2 (major metabolite) were evaluated in a panel of 468 human kinases and disease relevant mutant variants. Compound 1 and Compound 2 bound to few non-mutant kinases at <1% of control. […] While there is some variability between Compound 1 and Compound 2, it is clear that both compounds are very effective at binding to a large panel of mutant kinases. […] Binding constant to wild type EGFR was 4.9 nM.

A short description of series [3]: Cardiovascular function (telemetry). Format: in vivo, dog. The following applies: plasma; dog, 100 mg/kg Compound 1 PO; M38 as metabolite; read-out: estimated single-dose Cmax. How it is done:
This arrythmia was not associated with maximum plasma concentration (Cmax) or Tmax of either parent or metabolite. No definitive link to the test article could be identified. Given the unexplained reversible arrythmia in this high-dose (100 mg/kg) telemetry dog, routine electrocardiogram (ECG) monitoring in Phase 1 is recommended.

The nature of series [4]: Pharmacokinetics in rats (IV, PO). It is filed as in vivo, rat. As to conditions: rat, plasma, Compound 2 as metabolite. The source says:
Exposure was generally dose proportional.

A short description of series [5]: Oral dog 4-week toxicity study with toxicokinetics. It is filed as in vivo, beagle dogs. The following applies: beagle, in vivo, dog Day 28 mean, Compound 2 as metabolite; for AUC(0-t): read-out: AUC0-24. The method, then:
Compound 1 (0, 10, 30, and 100 mg/kg/day) was given orally, once daily by gavage, to male and female beagle dogs (4/sex) for up to 28 days. […] The cause of death in this high-dose male was attributed to myocardial degeneration. This lesion was not observed in any other dog on study. Increases in alkaline phosphatase, globulin, cholesterol, triglycerides and fibrinogen and decreased reticulocyte counts noted in the high-dose group at mid-study returned towards baseline by the end of the study following 11/12 days of recovery. Testicular changes at all doses (seminiferous epithelial vacuolation at 10 and 30 mg/kg and degeneration/atrophy at 100 mg/kg) were not reversible in this short-term study; the reversibility period was not long enough to assess reversibility of testicular changes.
The increases were generally dose-proportional or greater-than dose-proportional on Day 1 and Day 28. Gender difference was not observed. No significant accumulation of Compound 1 or Compound 2 was observed.
Thirty-two beagle dogs (conventional, naive) were divided into four groups. Each group consists of four male and four female. Group 1 beagle dogs were administered vehicle and groups 2-4 beagle dogs were administered Compound 1 at 10 mg/kg, 30 mg/kg, and 100 mg/kg, respectively, by oral gavage once daily for 28 consecutive days (Table 15). […] Cmax (ng/mL) and AUClast (hr*ng/mL) of Compound 1 on day 1 were obtained for groups 2-4 (Table 15).

Series [6] relates to 293-EGFRvIII cells. Kind of series: Cell viability of 293-EGFRvIII cells (CellTiter-Glo). The following applies: Homo sapiens, 72 h, read-out: IC50, viability of 293-EGFRvIII cells. It is filed as cell-based, human. The method, then:
(§2) Cells were seeded in 96-well plates at a density of 1,000 cells per well and treated with two-fold serial dilutions of compounds with a starting concentration of 20 μM. Cell viability was assessed after three days of treatment by CellTiter-Glo (Promega). Curve fitting analysis and IC50 value determination were performed using GraphPad Prism 8.

The test system of series [7] is U251-EGFRvIII cells. The experiment in a line: Viability/proliferation of U251-EGFRvIII cells. It is filed as cell-based, human. The method, then: as §2
In parallel, the conventional human GBM U251 cell line was used as a surrogate model for both in vitro and in vivo studies. U251 cells were engineered to stably express EGFRvIII (U251-EGFRvIII) via retroviral-mediated gene transfer.

Series [8] deals with ALK (Homo sapiens, UniProt Q9UM73). Kind of series: Kinase binding constant (Kd). The method, then:
(§3) EGFR amplifications and/or mutations are common in GBM, estimated to occur in over 50% of patients.
as §1

Series [9] addresses PDGFRA (Homo sapiens, UniProt P16234). Kind of series: Kinase binding constant (Kd). The method, then: as §3, §1
The target of series [10] is PDGFRB (Homo sapiens, UniProt P09619). The experiment in a line: Kinase binding constant (Kd). How it is done:
as §3, §1

The nature of series [11]: Body weight over the course of treatment in mice. Format: in vivo. As to conditions: 25 mg/kg; study endpoint reached within one month.
The subject of series [12] is NCI-H1975 cells (EGFR L858R/T790M mutation). The experiment in a line: Cell viability assay, NCI-H1975 (CellTiter-Glo). It is filed as cell-based. The following applies: Homo sapiens, NCI-H1975, 72 h, read-out: IC50, cell viability. The source says:
(§4) CellTier-Glo (Promega) assay kit (https://www.promega.com/resources/protocols/technical-bulletins/0/celltiter-glo-luminescentcell-viability-assay-protocol/) was used here.
For orientation: ATP-based viability assays read luminescence as a measure of living cells.

The subject of series [13] is PC-9 cells (EGFR exon 19 deletion). The experiment in a line: Cell viability assay, PC-9 (CellTiter-Glo). It is filed as cell-based. As to conditions: Homo sapiens, PC-9, read-out: IC50, cell viability.
Description: as §4

The subject of series [14] is P-gp, Bcrp. As to conditions: previously published report; cited from earlier work.
In series [15] the test system is NSCLC brain metastases. Kind of series: NSCLC brain metastases in SCID mice. As to conditions: 25 mg/kg; […].
Setting [16] is: 3 mg/kg IV infusion over 5 h, 5 h, individual animal, Compound 2 as metabolite in Compound 1-dosed rats.
Setting [17] is: female, 10 mg/kg Compound 1 PO, F.
[18] abbreviates: female, 30 mg/kg Compound 1 PO, F.
[19] abbreviates: male, 10 mg/kg Compound 1 PO, M.
[20] abbreviates: male, 30 mg/kg Compound 1 PO, M.

Several values for one entry are separate records, joined by “and”; a condition that tells them apart may be missing. Equal values may be shown once. Read-outs that look alike come from different tables or passages of the source.

Sequence of ALK (Q9UM73 19-1620): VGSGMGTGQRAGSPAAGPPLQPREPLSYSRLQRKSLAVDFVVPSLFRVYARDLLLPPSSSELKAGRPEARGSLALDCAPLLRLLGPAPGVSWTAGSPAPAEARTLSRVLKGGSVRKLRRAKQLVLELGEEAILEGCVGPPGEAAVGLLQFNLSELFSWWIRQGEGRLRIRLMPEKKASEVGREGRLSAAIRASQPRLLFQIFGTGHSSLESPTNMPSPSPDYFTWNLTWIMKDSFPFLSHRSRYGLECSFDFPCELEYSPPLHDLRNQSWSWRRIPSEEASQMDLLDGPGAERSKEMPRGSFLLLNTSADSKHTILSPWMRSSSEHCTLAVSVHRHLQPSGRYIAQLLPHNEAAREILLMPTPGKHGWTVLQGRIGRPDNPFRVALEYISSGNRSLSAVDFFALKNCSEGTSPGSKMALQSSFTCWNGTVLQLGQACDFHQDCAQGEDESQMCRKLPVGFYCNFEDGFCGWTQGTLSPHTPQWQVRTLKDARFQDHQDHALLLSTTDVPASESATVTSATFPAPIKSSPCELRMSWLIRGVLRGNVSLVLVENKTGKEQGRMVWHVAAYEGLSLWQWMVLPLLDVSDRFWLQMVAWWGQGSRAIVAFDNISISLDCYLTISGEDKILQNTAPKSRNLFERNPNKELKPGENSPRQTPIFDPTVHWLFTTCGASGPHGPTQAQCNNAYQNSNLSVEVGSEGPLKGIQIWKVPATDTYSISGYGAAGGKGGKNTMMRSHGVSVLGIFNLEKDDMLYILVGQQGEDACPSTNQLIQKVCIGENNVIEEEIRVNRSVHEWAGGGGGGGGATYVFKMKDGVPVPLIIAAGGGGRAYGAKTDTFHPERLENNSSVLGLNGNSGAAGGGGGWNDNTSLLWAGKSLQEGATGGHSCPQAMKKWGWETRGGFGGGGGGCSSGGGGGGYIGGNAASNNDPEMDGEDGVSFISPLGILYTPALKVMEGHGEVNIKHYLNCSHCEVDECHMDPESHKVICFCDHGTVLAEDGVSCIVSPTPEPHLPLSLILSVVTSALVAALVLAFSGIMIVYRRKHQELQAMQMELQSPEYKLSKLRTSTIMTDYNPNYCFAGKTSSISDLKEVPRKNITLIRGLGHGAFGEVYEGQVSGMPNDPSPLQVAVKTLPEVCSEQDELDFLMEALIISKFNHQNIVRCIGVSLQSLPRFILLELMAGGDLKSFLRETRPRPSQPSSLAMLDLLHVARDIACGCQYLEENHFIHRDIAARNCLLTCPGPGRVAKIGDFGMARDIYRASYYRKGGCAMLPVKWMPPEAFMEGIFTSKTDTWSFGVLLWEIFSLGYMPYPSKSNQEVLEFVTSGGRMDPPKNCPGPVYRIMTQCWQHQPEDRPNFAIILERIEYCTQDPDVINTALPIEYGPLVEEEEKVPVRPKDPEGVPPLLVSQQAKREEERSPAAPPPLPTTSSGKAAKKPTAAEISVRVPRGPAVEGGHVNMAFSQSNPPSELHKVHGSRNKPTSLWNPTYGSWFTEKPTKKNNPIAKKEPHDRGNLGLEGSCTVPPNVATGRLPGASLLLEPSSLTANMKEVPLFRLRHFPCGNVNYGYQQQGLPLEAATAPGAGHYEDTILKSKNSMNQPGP
Sequence of PDGFRA (P16234 24-1089): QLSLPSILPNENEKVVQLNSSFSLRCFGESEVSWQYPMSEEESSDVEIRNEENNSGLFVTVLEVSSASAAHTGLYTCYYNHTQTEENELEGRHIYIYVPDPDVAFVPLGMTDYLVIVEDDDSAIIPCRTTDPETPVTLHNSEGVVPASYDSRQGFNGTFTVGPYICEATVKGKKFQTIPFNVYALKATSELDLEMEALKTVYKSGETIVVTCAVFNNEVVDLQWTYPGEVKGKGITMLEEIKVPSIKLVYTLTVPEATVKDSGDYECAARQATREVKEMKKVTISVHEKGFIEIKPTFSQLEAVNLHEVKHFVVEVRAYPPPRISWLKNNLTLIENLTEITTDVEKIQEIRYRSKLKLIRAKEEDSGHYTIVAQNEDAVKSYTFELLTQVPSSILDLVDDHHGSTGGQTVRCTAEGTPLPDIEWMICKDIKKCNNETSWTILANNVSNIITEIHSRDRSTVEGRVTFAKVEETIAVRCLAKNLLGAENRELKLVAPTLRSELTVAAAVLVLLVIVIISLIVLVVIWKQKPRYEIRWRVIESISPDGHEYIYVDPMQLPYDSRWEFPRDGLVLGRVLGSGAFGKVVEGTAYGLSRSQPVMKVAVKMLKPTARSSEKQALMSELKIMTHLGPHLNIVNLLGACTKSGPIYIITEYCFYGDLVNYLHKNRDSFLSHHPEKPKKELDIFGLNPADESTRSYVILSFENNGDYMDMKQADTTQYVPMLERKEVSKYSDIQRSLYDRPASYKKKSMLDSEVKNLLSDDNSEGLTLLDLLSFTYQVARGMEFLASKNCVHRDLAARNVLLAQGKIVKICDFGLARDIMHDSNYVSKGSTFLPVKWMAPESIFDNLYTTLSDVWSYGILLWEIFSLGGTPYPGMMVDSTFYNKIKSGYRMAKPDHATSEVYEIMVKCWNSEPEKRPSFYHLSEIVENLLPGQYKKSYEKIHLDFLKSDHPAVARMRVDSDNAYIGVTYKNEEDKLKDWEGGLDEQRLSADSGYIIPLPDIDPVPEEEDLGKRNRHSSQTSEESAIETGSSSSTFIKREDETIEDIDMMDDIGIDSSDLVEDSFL
Sequence of PDGFRB (P09619 33-1106): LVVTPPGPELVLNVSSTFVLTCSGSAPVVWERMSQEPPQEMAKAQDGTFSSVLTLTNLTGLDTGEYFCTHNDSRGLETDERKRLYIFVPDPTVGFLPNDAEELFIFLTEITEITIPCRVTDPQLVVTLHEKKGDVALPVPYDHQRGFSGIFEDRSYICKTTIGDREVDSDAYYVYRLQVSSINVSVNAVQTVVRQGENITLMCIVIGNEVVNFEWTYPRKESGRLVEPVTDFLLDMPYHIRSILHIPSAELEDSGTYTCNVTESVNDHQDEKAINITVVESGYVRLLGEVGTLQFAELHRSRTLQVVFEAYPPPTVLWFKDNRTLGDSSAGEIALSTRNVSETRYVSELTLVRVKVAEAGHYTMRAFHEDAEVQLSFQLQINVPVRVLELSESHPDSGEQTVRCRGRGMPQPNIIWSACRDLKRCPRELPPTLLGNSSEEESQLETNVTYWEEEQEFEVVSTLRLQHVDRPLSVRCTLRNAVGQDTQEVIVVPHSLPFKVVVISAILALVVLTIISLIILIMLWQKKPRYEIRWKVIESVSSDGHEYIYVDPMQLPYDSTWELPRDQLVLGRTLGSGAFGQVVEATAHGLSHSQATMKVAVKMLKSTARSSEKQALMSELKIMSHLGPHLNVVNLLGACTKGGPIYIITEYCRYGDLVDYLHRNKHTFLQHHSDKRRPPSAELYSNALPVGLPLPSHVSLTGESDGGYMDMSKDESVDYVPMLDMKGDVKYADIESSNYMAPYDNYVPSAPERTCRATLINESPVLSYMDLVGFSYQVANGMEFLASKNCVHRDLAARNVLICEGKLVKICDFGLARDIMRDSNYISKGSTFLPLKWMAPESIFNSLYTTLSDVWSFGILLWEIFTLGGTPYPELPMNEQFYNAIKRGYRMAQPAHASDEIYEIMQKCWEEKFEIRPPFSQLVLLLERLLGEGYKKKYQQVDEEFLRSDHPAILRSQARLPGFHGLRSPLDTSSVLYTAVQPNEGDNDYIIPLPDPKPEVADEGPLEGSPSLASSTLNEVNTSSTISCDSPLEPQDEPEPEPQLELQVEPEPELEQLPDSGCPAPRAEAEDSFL

By Cmax is commonly meant the peak of the concentration-time curve. By half-life is commonly meant how long it takes for the measured level to halve. Usually Tmax stands for the time from dosing to the highest level. For the compound `C=CC(=O)Nc1cc(Nc2nccc(-n3ccc4cccnc43)n2)c(OC)cc1N(C)CCNC` [Compound 2, N-(5-((4-(1H-pyrrolo[2,3-b]pyridin-1-yl)pyrimidin-2-yl)amino)-4-methoxy-2-(methyl(2-(methylamino)ethyl)amino)phenyl)acrylamide], the “Plasma Concentration” value was “BLQ” in series [1] (3 mg/kg IV infusion over 5 h, 0.083 h, individual animal, Compound 2 as metabolite in Compound 1-dosed rats); “BLQ” in [1] (3 mg/kg IV infusion over 5 h, 0.083 h, mean n=6, Compound 2 as metabolite); 3.47 ng/mL (2×) and 3.14 ng/mL and 3.28 ng/mL and 2.71 ng/mL in series [1] (3 mg/kg IV infusion over 5 h, 1 h, individual animal, Compound 2 as metabolite in Compound 1-dosed rats); 7.75 ng/mL and 6.99 ng/mL and 8.41 ng/mL and 7.39 ng/mL and 6.20 ng/mL in series [1] (3 mg/kg IV infusion over 5 h, 2 h, individual animal, Compound 2 as metabolite in Compound 1-dosed rats); 12.9 ng/mL and 10.6 ng/mL and 12.7 ng/mL and 12.5 ng/mL and 12.3 ng/mL in [1] (3 mg/kg IV infusion over 5 h, 3 h, individual animal, Compound 2 as metabolite in Compound 1-dosed rats); 18.1 ng/mL and 19.6 ng/mL and 18.9 ng/mL and 20.4 ng/mL and 16.8 ng/mL in series [1] (setting [16]). Moreover, the “Brain Tissue Concentration” value in [1] (setting [16]) was 23.6 ng/g and 20.9 ng/g and 21.0 ng/g and 21.6 ng/g and 19.8 ng/g. Also, the “Brain/Plasma (ratios)” value in [1] (setting [16]) was 1.30 and 1.07 and 1.11 and 1.06. Moreover, in series [1] (Compound 2 as metabolite, rat), the “brain exposure relative to plasma” value is on record as “essentially equal to plasma”. For the same compound, the concentration at 5 h stood at 24.5 ng/g in series [1] (rat, brain, 3 mg/kg IV infusion over 5 h, 5 h, individual animal, Compound 2 as metabolite in Compound 1-dosed rats, read-out: Brain Tissue Concentration); 21.9 ng/g in series [1] (rat, brain, 3 mg/kg IV infusion over 5 h, 5 h, mean n=6, Compound 2 as metabolite, read-out: Brain Tissue Concentration); 18.2 ng/mL in [1] (rat, plasma, 3 mg/kg IV infusion over 5 h, 5 h, individual animal, Compound 2 as metabolite in Compound 1-dosed rats, read-out: Plasma Concentration); 18.7 ng/mL in series [1] (rat, plasma, 3 mg/kg IV infusion over 5 h, 5 h, mean n=6, Compound 2 as metabolite, read-out: Plasma Concentration). Moreover, the Kp at 5 h in series [1] (rat, brain, 3 mg/kg IV infusion over 5 h, 5 h, individual animal, Compound 2 as metabolite in Compound 1-dosed rats) is 1.35; in series [1] (rat, brain, 3 mg/kg IV infusion over 5 h, 5 h, mean n=6, Compound 2 as metabolite) it was 1.18. Also, the concentration at 1 h in [1] (rat, plasma, 3 mg/kg IV infusion over 5 h, 1 h, individual animal, Compound 2 as metabolite in Compound 1-dosed rats) was determined as 3.24 ng/mL; in series [1] (rat, plasma, 3 mg/kg IV infusion over 5 h, 1 h, mean n=6, Compound 2 as metabolite), 3.22 ng/mL. In addition, the concentration at 2 h in [1] (rat, plasma, 3 mg/kg IV infusion over 5 h, 2 h, individual animal, Compound 2 as metabolite in Compound 1-dosed rats) was 5.62 ng/mL; in series [1] (rat, plasma, 3 mg/kg IV infusion over 5 h, 2 h, mean n=6, Compound 2 as metabolite), 7.06 ng/mL. In addition, the concentration at 3 h turned out to be 12.9 ng/mL in series [1] (rat, plasma, 3 mg/kg IV infusion over 5 h, 3 h, individual animal, Compound 2 as metabolite in Compound 1-dosed rats) and 12.3 ng/mL in series [1] (rat, plasma, 3 mg/kg IV infusion over 5 h, 3 h, mean n=6, Compound 2 as metabolite). In addition, the “targeted non-mutant kinases (bound at <1% of control)” value in series [2] was “ERBB2, JAK3 (JH1-domain-catalytic), MKNK2, MTOR, OSR1 and TNK1”. For the same compound, the Cmax was ~367 ng/mL and ~750 nM in series [3]; 242 ng/mL in [5] (setting [17]); 161 ng/mL in series [5] (setting [18]); 143 ng/mL in [5] (setting [19]); 263 ng/mL in series [5] (setting [20]). The half-life in series [4] was roughly 9 h. Moreover, the Tmax in series [4] (po) was roughly 7 h. Further, the AUC(0-t) in series [5] (setting [17]) stood at 3360 ng·h/mL; in series [5] (setting [18]), 1790 ng·h/mL; in [5] (setting [19]) it was 1420 ng·h/mL; in series [5] (setting [20]), 2980 ng·h/mL.
The Kd is the concentration at which binding is half-saturated. Consider `C=CC(=O)Nc1cc(Nc2nccc(-c3cn(C)c4ccccc34)n2)c(OC)cc1N(C)CCN(C)C` [Osimertinib, reference compound], for which the IC50 in series [6] stood at 2190 nM; in series [7] (Homo sapiens, read-out: IC50, viability of U251-EGFRvIII cells), […]; in series [7] (Homo sapiens, read-out: IC50 on U251-EGFRvIII cell proliferation), 2450 nM; in series [7] (read-out: IC50, viability of U251-EGFRvIII cells), […]; in [12], […]; in series [13], 18.1 nM. Also, the Kd in series [8] came out at 69 nM; in [9], 740 nM; in [10] it was 1500 nM. Moreover, in [11], the “body weight over the course of treatment” value is “significant body weight loss”. The “Efflux Liability” value in series [14] is reported as “P-gp, Bcrp”. In addition, the “time at which study endpoint was reached” value in series [15] is reported as 4 weeks.
